The subject of the experiment is influenza (A/PR/8/34), H1N1 virus. Briefly: In vivo mouse influenza challenge, bupropion metabolite by oral gavage. The note with it: H1N1-infected mice. From the text: 6) In Vivo Mouse Studies Using Bupropion Metabolite
The bupropion metabolite known as 2-(1,1-dimethylethyl)amino-1-(3-chlorophenyl)propan-1-ol (BC1053), in 10% ethanol, was delivered orally to influenza infected mice, as follows.
Two groups of n=12 C57BLK/6 barrier reared female mice (6-8 weeks old, and between 15-18 g in weight) were intranasally challenged with a lethal dose of influenza (A/PR/8/34). On day 3 post-challenge, the animals received the following treatments: group A received an oral gavage of 100 μl of 10% Ethanol in water; and group B received an oral gavage of 100 μl containing 540 μg of bupropion metabolite in 10% Ethanol in water.
The animals were weighed and monitored daily for morbidity and mortality up to day 6, when all animals were culled. Average weight loss per group and survival were calculated.
As described above, mice were infected with a H1N1 virus which was allowed to become established in each of the subjects. Each test mouse was then treated with 2-(1,1-dimethylethyl)amino-1-(3-chlorophenyl)propan-1-ol (i.e. a bupropion metabolite, BC1053) with a single dose on day 3 after infection with the virus. In the control mice, no metabolite was administered. The weight loss of both treated and untreated mice was then determined.

Bounds are passed on as bounds.

For `CC(NC(C)(C)C)C(O)c1cccc(Cl)c1` (centres unmarked) [BC1053, 2-(1,1-dimethylethyl)amino-1-(3-chlorophenyl)propan-1-ol], where the note is “single oral dose 540 μg on day 3, FIG. 4”, the “lower reduction in weight loss than the control mice” value was ≥ 30%. The “higher survival rate than the control, untreated mice” value (single oral dose 540 μg on day 3, FIG. 5) was “about 30%”.

Source of the values: patent US20120283334A1, “Treatment of Viral Infections” (Biocopea, Ltd., priority 2009, published 2012).
